Assay [1] concerns the target T1, thromboxane synthase (Homo sapiens, UniProt P24557).
T1 construct: incubated with fresh whole human blood that had been anticoagulated with 0.38% trisodium citrate; from tissue; host or cells: fresh whole human blood (citrated, recalcified)
T1 sequence (P24557 1-533): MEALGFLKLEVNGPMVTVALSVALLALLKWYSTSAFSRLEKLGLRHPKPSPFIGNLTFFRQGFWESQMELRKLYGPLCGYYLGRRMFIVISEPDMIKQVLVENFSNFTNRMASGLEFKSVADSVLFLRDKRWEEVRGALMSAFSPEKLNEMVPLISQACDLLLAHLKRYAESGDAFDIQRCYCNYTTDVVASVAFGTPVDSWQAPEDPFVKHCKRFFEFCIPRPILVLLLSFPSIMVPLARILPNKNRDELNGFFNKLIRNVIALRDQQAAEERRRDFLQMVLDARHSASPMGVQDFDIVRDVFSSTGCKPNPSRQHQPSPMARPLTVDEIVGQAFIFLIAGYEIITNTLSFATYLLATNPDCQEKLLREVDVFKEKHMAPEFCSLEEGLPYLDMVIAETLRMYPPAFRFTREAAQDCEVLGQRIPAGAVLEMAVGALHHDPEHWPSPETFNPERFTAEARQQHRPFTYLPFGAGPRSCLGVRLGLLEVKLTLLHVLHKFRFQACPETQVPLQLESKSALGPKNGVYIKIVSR
The assay can be described thus: Thromboxane Synthase Inhibition (TSI) Assay: serum TXB2 by radioimmunoassay in whole human blood. As to conditions: for Serum TXB2: mean ± SE, n = 3, vehicle 375. In kind it is cell-based. On the procedure: The ability of the compound of the present invention to be an effective thromboxane synthase inhibitor were evaluated in the following Thromboxane Synthase Inhibition (TSI) Assay with the results shown in Table 1 below:
Method for Thromboxane Synthase Inhibition (TSI) Test:
(§1) The test compound - 6-azaindole-1-hexanoic acid (the compound of Example 1, Part D) was dissolved in dimethylsulfoxide at varying concentrations. The compound solutions and dimethylsulfoxide alone (vehicle) were incubated with fresh whole human blood that had been anticoagulated with 0.38% trisodium citrate, for 30 minutes at 37° C. After 30 minutes, 0.025 ml of 0.5 M calcium chloride solution was added to each 1 ml of blood and further incubated for one hour at 37° C. Serum was prepared by centrifugation of the blood at 2000 x g for 15 minutes in a Beckman table top centrifuge. Serum TXB2 and 6-keto-PGF1a, the stable metabolites of and markers of synthesis of TXA2 and prostacyclin respectively, were measured by radioimmunoassay by commonly used test methods (see, Refs.,1 & 2 below). Results from the radioimmunoassay of TXB2 are shown in Table 1 and indicate the dose-dependent potency of the compound of Example 1, Part D as a thromboxane synthase inhibitor.

The test system of assay [2] is cyclooxygenase and prostacyclin synthase. Briefly: Serum 6-keto-PGF1a by radioimmunoassay in whole human blood (specificity of TSI). As to conditions: for Serum 6-keto-PGF1a: whole human blood, mean ± SE, n = 3, vehicle 1.6 ± 0.2. It is filed as cell-based. On the procedure: as §1
Data determined from the radioimmunoassay of serum 6-keto-PGF1a (reflecting prostacyclin generation) allowed a determination of the specificity of 6-azaindole-1-hexanoic acid for the inhibition of thromboxane synthase versus cyclooxygenase and prostacyclin synthase as indicated by the serum levels of 6-keto-PGF1a. These values decrease in the presence of a nonspecific inhibitor (i.e., aspirin) but are unchanged or increased by specific TSI. The data in Table 2 documents the expected dose-dependent stimulatory effect of the compound of 6-azaindole-1-hexanoic acid on human serum 6-keto-PGF1a levels and confirm the specific TSI by 6-azaindole-1-hexanoic acid.

Assay [3] deals with thromboxane synthase. The assay can be described thus: Oral activity: serum TXB2 in rats one hour after oral dosing. It is filed as in vivo. As to conditions: blood one hour after dosing, mean ± SE, n = 3, dose 0: 340. On the procedure:
The oral activity of 6-azaindole-1-hexanoic acid was established by treating rats via the oral route with solutions of the compound and one hour later collecting blood. The blood was allowed to clot in glass tubes for 1 hour at 37° C. Serum was collected after sedimentation of the clot by centrifugation at 2000 x g for 15 minutes in a Beckman table top centrifuge. The levels of TXB2 were measured in the serum by radioimmunoassay. Decreased levels of TXB2 indicate the presence of compound in the blood resulting from oral absorption. The results of these experiments are shown in Table 3 and document the availability of the compound via the oral route of administration and the dose-dependency of the desired inhibitory effect on serum TXB2.

For the molecule `O=C(O)CCCCCn1ccc2ccncc21` [Example 1 Part D, 6-azaindole-1-hexanoic acid], the “Serum TXB2” value is 235 ng/mL at thromboxane synthase [1] (0.01 μM compound); 109 ng/mL on thromboxane synthase [1] (0.1 μM compound); 18.8 ng/mL on thromboxane synthase [1] (1 μM compound); 85.1 ng/mL in the assay with thromboxane synthase [3] (1 mg/kg p.o.); 18.4 ng/mL with thromboxane synthase [3] (10 mg/kg p.o.). The IC50 at thromboxane synthase [1] (serum TXB2, mean±SE, n=3, read-out: IC50 (concentration required to reduce thromboxane generation to 50% of vehicle)) turned out to be 23 ± 4.1 nM. In addition, the “Serum 6-keto-PGF1a” value in assay [2] (0.01 μM compound) stood at 1.7 ± 0.1 ng/mL; in assay [2] (0.1 μM compound), 2.4 ± 0.6 ng/mL; in assay [2] (1 μM compound), 2.6 ± 0.7 ng/mL. The “Specificity for inhibition of thromboxane synthase versus cyclooxygenase and prostacyclin synthase” value in assay [2] (judged from human serum 6-keto-PGF1a levels) is listed as “specific TSI”.

The values are drawn from patent publication US5468757A, “6-azaindole thromboxane synthase inhibitors” (Eli Lilly and Company, priority 1994, dated 1995).
